According to patent publication US20100278896A1, “SOLID COMPOSITIONS” (UCL BUSINESS PLC, priority 2007, published 2010):
One block for each molecule: values may come before it.

Assays:
[1] = Tablet release in flow rig, pH 7.6 aqueous solution, 37° C., flow rate 2 μl/min, HPLC; type: physicochemical
Experimental: To obtain some indication of release kinetics, flow rigs of 50-200 μl capacity were used to model the bleb. An Ilomastat tablet (one tablet per rig) was placed into the flow chamber. Two tubes are connected to each rig: one was connected to a peristaltic pump to introduce an aqueous solution and the other tube allowed the removal of the solution out of the rig. Flow rates were used to model the flow of the aqueous solution into and out from the subconjunctival space to the scleral veins.
A range of flow rates was used in the rig experiments; however, in most of the experiments a flow rate of 2 μl/min was used to simulate the aqueous flow rate in the bleb. To further simulate the actual conditions in the eye, the aqueous solution used was maintained at pH 7.4-7.6 (as this is the pH of normal human aqueous humor) and the temperature was maintained at 37° C. The aqueous solution that was prepared using Oxoid® Phosphate Buffered Saline Tablets (one tablet for every 100 ml of de-ionized water). The PBS tablets were dissolved in de-ionized water and the pH was adjusted to 7.6. The aqueous solution was kept at 37° C.
The mobile phase was prepared as follows. […] When the pH was adjusted, de-ionized water was added to make the buffer volume of 1000 ml. Aliquots of each sample (0.1 ml) were transferred to HPLC vials that were then placed in the HPLC auto-sampler. […] Three injections (10 μl each) for each time point were evaluated. A computer was connected with the UV detector and with the use of the programme Chrom+, the peak area was analyzed to determine the amount of Ilomastat. […] The average of the three measurements was used to determine the amount of Ilomastat. […]
As indicated above, a tablet of solid 5-FU was fabricated using the same technique as described above. The dissolution rate of the tablet was then determined using the same rig as described above.
Each tablet was placed into the rig as described above and liquid samples analysed by HPLC and concentration of 5-FU was determined using the calibration curve. […]

[2] = test system: Human Tenon's fibroblasts (HTF); settings: cited from earlier work; for contraction of HTF populated collagen gels: dose-dependent, Daniels et al., 2003
[3] = Engalytcheff et al. 2004; cited from earlier work
[4] = test system: Human Tenon's fibroblasts (HTF); experiment: Contraction of HTF collagen I gels (in vitro contraction model); type: cell-based; settings: for Contraction (%) of HTF collagen I gels: media without DMSO; for Contraction (%) of HTF collagen I gels, Average / Contraction (%) of HTF collagen I gels, Group 1 / Contraction (%) of HTF collagen I gels, Group 2 / Contraction (%) of HTF collagen I gels, Group 3 / Contraction (%) of HTF collagen I gels, Group 4: 2nd in vitro experiment
Experimental: Human Tenon's fibroblasts (HTF) were used for in vitro cultures. These cells are involved in subconjunctival scarring. The process of HTF isolation and proliferation was performed by using 0.5 cm^3 tissue explants from donor eyes obtained from Moorfields Hospital Eye Bank under the Tenets of the Declaration of Helsinki (1989). Explants of 0.5 cm^3 were kept for two hours in the bottom of 25 cm^3 flasks, with a coverslip placed over them. Each flask contained 5 ml of normal culture medium consisting of Dulbecco's modified Eagle's Medium (DMEM) with 10% fetal calf serum, 2 mM L-glutamine, 100 U/ml penicillin, […] gentamicin, 100 μg/ml streptomycin and 0.25 μg/ml amphotericin. The flasks were placed in incubators at 37° C. and 5% humidified CO2 in air. The culture medium was changed every 3 days and when they became confluent, usually within one month, they were passaged into new flasks for direct experimental use or were stored in liquid nitrogen.
After the HTFs reached confluence, the culture medium was aspirated and the monolayer was washed with 1 ml of trypsin 1× (Gibco) and the trypsin was quickly aspirated for about 15 seconds. Next, 2 ml of trypsin 1× (Gibco) were added to each flask and HTFs were detached from the flasks by incubation for 2 minutes at 37° C. and 5% humidified CO2 in air. After confirming by phase contrast microscopy using a Leica microscope with ×10 magnification that the cells had been detached from the bottom of the flask and that they had obtained a round shape, 2 ml of cell culture medium were added to neutralise the trypsinisation. The cell suspension was transferred to a 15 ml centrifuge tube (STARLAB GMBH) and was centrifuged at 1600 rpm for 5 minutes. The cell pellet was then resuspended in 10 ml of cell culture medium and was divided into 4 different 75 cm^3 flasks (1:4 expansion). In each flask 7.5 ml of cell culture medium were added. Flasks were placed in incubators at 37° C. and 5% humidified CO2 in air and the culture media was changed every three days. The time that was required from passage to passage in order to reach confluence was 1 week on average.
With a Neubauer plate, 6.2×10^4 HTF were counted and then were resuspended in 170 μl FBS in a 50 ml universal tube. Concentrated medium (160 μl) was added (stock solution consisting of 3.5 ml DMEM (×10 stock), 0.35 ml glutamine (2 mM stock) and 0.9 ml sodium bicarbonate (7.5% stock). 830 μl of First Link type I collagen solution collagen (stock 2.2 mg/ml in 0.6% acetic acid) were then added and the solution was mixed by swirling to avoid air bubbles. Sterile 1M NaOH (75-80 μl) was rapidly added to change the acidic pH of the solution. This caused the solution to turn a pink colour without reverting back to yellow. Quickly 150 μl collagen gel solution was cast into the wells of Mattek dishes making sure to cast the gel to the edges of the central groove using the pipette tip. Creation of air bubbles when ejecting the gel from the tip should be avoided. If air bubbles were formed, they were aspirated out. Usually, from a 1.2 ml gel suspension, 6 gels can easily be cast. Following this process, the wells of Makket dishes with the gels were placed in incubator to set for at least 10-15 min (up to 30 mins). Gels were detached from the edges of the central groove using yellow tips and excess unpolymerised solution was aspirated off. Two milliliters of cell culture medium were added and the dishes were placed in incubators at 37° C. and 5% humidified CO2 in air; the medium was replaced every 3 days.
Generally solid Ilomastat is diluted into DMSO before being added into the media, however in this experiment Ilomastat could be directly dissolved in the normal media without DMSO. […] The concentration of both samples was then confirmed by HPLC.
To compare with irradiated Ilomastat, experiments were conducted with three different treatment groups of collagen gels. Each treatment group had 3 collagen I gels with HTFs. […]

[5] = Comparison of irradiated and non-irradiated product (gamma radiation, HPLC)
[6] = Dissolution of Ilomastat in pH 7.6 aqueous solution without DMSO; type: physicochemical
Experimental: The curve was created as follows. […] The stock solution was then diluted in individual containers to give six other solutions with the following concentrations: 80 μM, 60 μM, 40 μM, 20 μM, 10 μM and 5 μM. Each solution was then evaluated three times by HPLC and the absorbance was determined.
A standard tablet punch and die and a press with an applied a pressure of five bars were used.

[7] = test system: rabbit bleb after trabeculectomy; settings: 17 injections in DMSO, 30 days, vs DMSO only control; cited from earlier work

release period ([1]; excipient-free 5-FU tablets A, B and C averaged): 25 h
Compound: O=c1[nH]cc(F)c(=O)[nH]1 [5-FU]
release kinetics ([1]; excipient-free tablets, FIGS. 9 to 13): essentially linear release of drug over a period of many hours

Compound: CNC(=O)[C@@H](NC(=O)[C@H](CC(C)C)NC(=O)[C@@H](S)CCN1C(=O)N(C)C(C)(C)C1=O)C(C)(C)C [BMS-275291]
contraction of HTF populated collagen gels [2]: inhibition of the contraction of the gels

Compound: C[C@H](CS)C(=O)N1CCC[C@H]1C(=O)O [Captopril]
degradation caused from irradiation [3]: not significant

Compound: CNC(=O)[C@H](Cc1c[nH]c2ccccc12)NC(=O)[C@@H](CC(=O)NO)CC(C)C [IRRADIATED ILOMASTAT]
Contraction (%) of HTF collagen I gels ([4]; DAY 0): 0%
Contraction (%) of HTF collagen I gels ([4]; DAY 1): 12.51%
Contraction (%) of HTF collagen I gels ([4]; DAY 2): 23.65%
Contraction (%) of HTF collagen I gels ([4]; DAY 3): 28.44%
Contraction (%) of HTF collagen I gels ([4]; DAY 4): 30.8%
Contraction (%) of HTF collagen I gels ([4]; DAY 5): 32.23%
Contraction (%) of HTF collagen I gels ([4]; DAY 6): 33.76%
Contraction (%) of HTF collagen I gels ([4]; DAY 7): 36.12%
trace products formed after irradiation, compared to total Ilomastat ([5]; 25 kGy gamma radiation, HPLC extra peak): 0.25%

Compound: CNC(=O)[C@H](Cc1c[nH]c2ccccc12)NC(=O)[C@@H](CC(=O)NO)CC(C)C [Ilomastat, N-[(2R)-2-(hydroxamidocarbonylmethyl)-4-methylpentanoyl]-L tryptophan methylamide]
time for which an MMP inhibitory concentration of 10 μM is maintained ([1]; solid dosage form of about 2 to 5 mg): at least 30 days
theoretical maximum dissolution in the aqueous solution [6]: about 100 μM
concentrations inhibiting in vitro contraction in collagen I gels in a dose dependent manner ([2]; Daniels et al. 2003, WO 95/24921): 10 to 100 nM
contraction of HTF populated collagen gels [2]: inhibition of the contraction of the gels
bleb survival [7]: prolong significantly the bleb survival
degradation caused by gamma radiation ([5]; 25 KGys dose): not significant

Compound: CNC(=O)[C@H](Cc1c[nH]c2ccccc12)NC(=O)[C@@H](CC(=O)NO)CC(C)C [NON IRRADIATED]
Contraction (%) of HTF collagen I gels ([4]; DAY 0): 0%
Contraction (%) of HTF collagen I gels ([4]; DAY 1): 11.96%
Contraction (%) of HTF collagen I gels ([4]; DAY 2): 27.19%
Contraction (%) of HTF collagen I gels ([4]; DAY 3): 32.97%
Contraction (%) of HTF collagen I gels ([4]; DAY 4): 39.9%
Contraction (%) of HTF collagen I gels ([4]; DAY 5): 41.66%
Contraction (%) of HTF collagen I gels ([4]; DAY 6): 42.03%
Contraction (%) of HTF collagen I gels ([4]; DAY 7): 43.19%

Compound: CNC(=O)[C@H](Cc1c[nH]c2ccccc12)NC(=O)[C@@H](CC(=O)NO)CC(C)C [Non-Irradiated Ilomastat with DMSO]
Contraction (%) of HTF collagen I gels, Average ([4]; Day 1): 19.35%
Contraction (%) of HTF collagen I gels, Group 1 ([4]; Day 1): 13.03%
Contraction (%) of HTF collagen I gels, Group 2 ([4]; Day 1): 19.45%
Contraction (%) of HTF collagen I gels, Group 3 ([4]; Day 1): 20.69%
Contraction (%) of HTF collagen I gels, Group 4 ([4]; Day 1): 24.23%
Contraction (%) of HTF collagen I gels, Average ([4]; Day 2): 22.63%
Contraction (%) of HTF collagen I gels, Group 1 ([4]; Day 2): 19.75%
Contraction (%) of HTF collagen I gels, Group 2 ([4]; Day 2): 22.77%
Contraction (%) of HTF collagen I gels, Group 3 ([4]; Day 2): 21.37%
Contraction (%) of HTF collagen I gels, Group 4 ([4]; Day 2): 26.63%
Contraction (%) of HTF collagen I gels, Average ([4]; Day 3): 23.325%
Contraction (%) of HTF collagen I gels, Group 1 ([4]; Day 3): 20.44%
Contraction (%) of HTF collagen I gels, Group 2 ([4]; Day 3): 24.14%
Contraction (%) of HTF collagen I gels, Group 3 ([4]; Day 3): 21.55%
Contraction (%) of HTF collagen I gels, Group 4 ([4]; Day 3): 27.17%
Contraction (%) of HTF collagen I gels, Average ([4]; Day 4): 24.14%
Contraction (%) of HTF collagen I gels, Group 1 ([4]; Day 4): 21.15%
Contraction (%) of HTF collagen I gels, Group 2 ([4]; Day 4): 25.19%
Contraction (%) of HTF collagen I gels, Group 3 ([4]; Day 4): 22.11%
Contraction (%) of HTF collagen I gels, Group 4 ([4]; Day 4): 28.11%
Contraction (%) of HTF collagen I gels, Average ([4]; Day 5): 25.375%
Contraction (%) of HTF collagen I gels, Group 1 ([4]; Day 5): 23.36%
Contraction (%) of HTF collagen I gels, Group 2 ([4]; Day 5): 25.33%
Contraction (%) of HTF collagen I gels, Group 3 ([4]; Day 5): 22.96%
Contraction (%) of HTF collagen I gels, Group 4 ([4]; Day 5): 29.85%
Contraction (%) of HTF collagen I gels, Average ([4]; Day 6): 27.6425%
Contraction (%) of HTF collagen I gels, Group 1 ([4]; Day 6): 24.42%
Contraction (%) of HTF collagen I gels, Group 2 ([4]; Day 6): 27.9%
Contraction (%) of HTF collagen I gels, Group 3 ([4]; Day 6): 24.9%
Contraction (%) of HTF collagen I gels, Group 4 ([4]; Day 6): 33.35%
Contraction (%) of HTF collagen I gels, Average ([4]; Day 7): 28.2525%
Contraction (%) of HTF collagen I gels, Group 1 ([4]; Day 7): 25.07%
Contraction (%) of HTF collagen I gels, Group 2 ([4]; Day 7): 29%
Contraction (%) of HTF collagen I gels, Group 3 ([4]; Day 7): 24.9%
Contraction (%) of HTF collagen I gels, Group 4 ([4]; Day 7): 34.04%
